The results in this text go back to ChEMBL document CHEMBL4270593, “Novel spiroindoline HDAC inhibitors: Synthesis, molecular modelling and biological studies” (Eur J Med Chem, 2018).

For data set [1], the species on record is Homo sapiens. The experiment in a line: Selectivity ratio of IC50 for human recombinant C-terminal His/FLAG-tagged full length HDAC1 to IC50 for N-terminal GST-tagged full length HDAC6.
The species named for data set [2] is Homo sapiens. The experiment in a line: Selectivity ratio of IC50 for human recombinant C-terminal His/FLAG-tagged full length HDAC2 to IC50 for human recombinant N-terminal GST-tagged full length HDAC6.
Data set [3] is filed under the species Homo sapiens. The data set is described as follows: Selectivity ratio of IC50 for human recombinant C-terminal His-tagged full length HDAC3/NcoR2 to IC50 for human recombinant N-terminal GST-tagged full length HDAC6.
In the next data set the target is T1, Histone deacetylase 8 (Homo sapiens, UniProt Q9BY41).
T1 sequence (Q9BY41 whole entry): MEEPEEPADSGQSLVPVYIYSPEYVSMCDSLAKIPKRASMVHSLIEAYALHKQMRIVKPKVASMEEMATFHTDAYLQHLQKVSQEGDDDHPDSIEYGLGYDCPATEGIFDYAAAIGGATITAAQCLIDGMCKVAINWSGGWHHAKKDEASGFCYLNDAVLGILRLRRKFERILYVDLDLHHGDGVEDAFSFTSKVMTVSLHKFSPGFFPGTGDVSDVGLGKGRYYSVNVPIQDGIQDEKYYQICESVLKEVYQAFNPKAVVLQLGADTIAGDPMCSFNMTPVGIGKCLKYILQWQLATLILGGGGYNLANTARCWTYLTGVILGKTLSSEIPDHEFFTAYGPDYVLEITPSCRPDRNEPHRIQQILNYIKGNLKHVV
The data set is described as follows: Inhibition of human recombinant HDAC8 using fluor de Lys(R) as substrate after 90 mins by fluorescence-based assay.

Data set [4] concerns the target T2, Protein deacetylase HDAC6 (Homo sapiens, UniProt Q9UBN7).
T2 sequence (Q9UBN7 whole entry): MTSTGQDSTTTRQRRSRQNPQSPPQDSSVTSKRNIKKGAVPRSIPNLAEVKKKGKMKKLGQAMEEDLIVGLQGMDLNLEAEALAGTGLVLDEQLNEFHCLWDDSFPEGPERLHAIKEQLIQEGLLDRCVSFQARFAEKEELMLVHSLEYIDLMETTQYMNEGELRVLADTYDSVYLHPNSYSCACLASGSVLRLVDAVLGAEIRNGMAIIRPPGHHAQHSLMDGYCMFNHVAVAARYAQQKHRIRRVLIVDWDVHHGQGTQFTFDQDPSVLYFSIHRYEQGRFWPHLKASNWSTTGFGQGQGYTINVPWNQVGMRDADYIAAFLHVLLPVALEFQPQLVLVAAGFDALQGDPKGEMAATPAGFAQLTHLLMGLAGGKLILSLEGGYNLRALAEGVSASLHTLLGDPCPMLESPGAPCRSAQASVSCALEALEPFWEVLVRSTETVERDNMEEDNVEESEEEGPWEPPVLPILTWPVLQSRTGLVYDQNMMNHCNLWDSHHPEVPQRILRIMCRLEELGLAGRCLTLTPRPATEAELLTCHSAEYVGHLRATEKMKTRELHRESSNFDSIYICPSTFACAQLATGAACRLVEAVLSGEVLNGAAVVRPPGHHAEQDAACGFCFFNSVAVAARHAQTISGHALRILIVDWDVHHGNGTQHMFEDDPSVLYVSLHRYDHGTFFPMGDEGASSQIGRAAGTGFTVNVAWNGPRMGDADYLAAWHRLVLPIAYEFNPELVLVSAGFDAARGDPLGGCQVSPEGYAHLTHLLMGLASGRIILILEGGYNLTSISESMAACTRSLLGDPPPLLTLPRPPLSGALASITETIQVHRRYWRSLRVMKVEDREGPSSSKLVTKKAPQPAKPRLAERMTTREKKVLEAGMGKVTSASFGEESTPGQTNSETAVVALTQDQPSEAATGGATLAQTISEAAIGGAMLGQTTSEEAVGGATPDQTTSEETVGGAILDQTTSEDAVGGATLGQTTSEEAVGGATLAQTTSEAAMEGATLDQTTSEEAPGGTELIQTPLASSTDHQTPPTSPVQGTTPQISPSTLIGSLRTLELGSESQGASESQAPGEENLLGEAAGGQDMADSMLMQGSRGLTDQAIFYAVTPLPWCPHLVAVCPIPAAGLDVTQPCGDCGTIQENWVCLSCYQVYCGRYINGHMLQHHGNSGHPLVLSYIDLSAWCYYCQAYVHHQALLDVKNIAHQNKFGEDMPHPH
The data set is described as follows: Inhibition of human recombinant N-terminal GST-tagged full length HDAC6 expressed in insect SF9 cells using fluorogenic ZMAL as substrate after 90 mins by fluorescence-based assay.

The target in the next data set is Histone deacetylase 1 (Homo sapiens, UniProt Q13547). The experiment in a line: Inhibition of human recombinant C-terminal His/FLAG-tagged full length HDAC1 expressed in insect SF9 cells using fluorogenic ZMAL as substrate after 90 mins by fluorescence-based assay.
Histone deacetylase 1, sequence (Q13547 whole entry): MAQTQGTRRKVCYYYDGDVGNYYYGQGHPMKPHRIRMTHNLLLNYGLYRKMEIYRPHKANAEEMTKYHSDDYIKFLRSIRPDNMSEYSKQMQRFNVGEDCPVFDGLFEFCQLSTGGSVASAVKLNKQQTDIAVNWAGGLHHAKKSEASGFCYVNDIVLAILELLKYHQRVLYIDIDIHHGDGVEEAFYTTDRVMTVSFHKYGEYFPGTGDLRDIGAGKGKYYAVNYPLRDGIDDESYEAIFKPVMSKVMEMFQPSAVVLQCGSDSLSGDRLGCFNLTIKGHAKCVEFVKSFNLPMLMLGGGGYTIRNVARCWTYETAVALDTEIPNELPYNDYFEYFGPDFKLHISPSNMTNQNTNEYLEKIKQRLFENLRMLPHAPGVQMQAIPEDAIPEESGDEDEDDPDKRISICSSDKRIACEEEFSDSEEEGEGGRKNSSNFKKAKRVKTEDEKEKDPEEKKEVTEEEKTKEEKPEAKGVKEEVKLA
The nature of data set [5]: Inhibition of class 1 HDAC in human NB4 cells assessed as levels of histone H3 acetylation at lysine 9/14 at 1 uM after 30 hrs by Western blot analysis relative to control.
Data set [6] is described as follows: Inhibition of class 1 HDAC in human NB4 cells assessed as levels of histone H3 acetylation at lysine 9/14 at 5 uM after 30 hrs by Western blot analysis relative to control.
Data set [7] is described as follows: Inhibition of class 1 HDAC in human U87 cells assessed as levels of histone H3 acetylation at lysine 9/14 at 1 uM after 30 hrs by Western blot analysis relative to control. Particulars: u87, 30 h. In general terms: In western blotting, separated proteins are transferred to a membrane and probed.
Data set [8] in a line: Inhibition of class 1 HDAC in human U87 cells assessed as levels of histone H3 acetylation at lysine 9/14 at 5 uM after 30 hrs by Western blot analysis relative to control. Particulars: u87, 30 h.
In data set [9] the target is T3, Protein deacetylase HDAC6 (Homo sapiens) (UniProt Q9UBN7).
T3 sequence (whole entry): T2 sequence (Q9UBN7 whole entry)
The data set is described as follows: Inhibition of HDAC6 in human U87 cells assessed as increase in levels of alpha-tubulin acetylation after 30 hrs by Western blot analysis. It is filed as cell-based.

Data set [10] in a line: Inhibition of class 1 HDAC in human SH-SY5Y cells assessed as levels of histone H3 acetylation at lysine 9/14 at 1 uM after 30 hrs by Western blot analysis relative to control.
The nature of data set [11]: Inhibition of class 1 HDAC in human SH-SY5Y cells assessed as levels of histone H3 acetylation at lysine 9/14 at 5 uM after 30 hrs by Western blot analysis relative to control.
Data set [12] deals with NB-4. The experiment in a line: Induction of cell death in human NB4 cells assessed as DNA fragmentation at 5 uM after 30 hrs by propidium iodide-based FACS analysis. The format is functional. (Flow cytometry measures light scatter and fluorescence of single cells or particles in a stream.)
The target of data set [13] is T3, Protein deacetylase HDAC6 (Homo sapiens). The data set is described as follows: Inhibition of HDAC6 in human SH-SY5Y cells assessed as reduction in cell migration at 5 uM measured every 2 mins for 4 days by RTCA based assay.
The nature of data set [14]: Cytotoxicity against mouse NIH/3T3 cells assessed as reduction in cell viability by neutral red uptake test. The format is cell-based, NIH3T3. Conditions: read-out: TC50 (the source's name).
The target of data set [15] is T3, Protein deacetylase HDAC6 (Homo sapiens). The data set is described as follows: Inhibition of HDAC6 in human SH-SY5Y cells assessed as increase in levels of alpha-tubulin acetylation after 30 hrs by Western blot analysis. The format is cell-based.
Data set [16] has as its system NB-4. The data set is described as follows: Induction of cell cycle arrest in human NB4 cells assessed as accumulation at G1 phase at 5 uM after 30 hrs by propidium iodide-based FACS analysis. The format is functional.
Data set [17] relates to NB-4. The data set is described as follows: Induction of cell cycle arrest in human NB4 cells assessed as accumulation at G1 phase after 30 hrs by propidium iodide-based FACS analysis. The format is functional.

Active and inactive are the calls of the source. The calls are words filed in the database; no cut-off is given here.

`O=C(CCCCCCNC(=O)c1cnc(N(c2ccccc2)c2ccccc2)nc1)NO`: the Ratio IC50 in the data set listed under Homo sapiens [1], in the data set listed under Homo sapiens [2] and in the data set listed under Homo sapiens [3] was 10 in each case.
In the case of `CC(C)(C)OC(=O)N1CCC2(CC1)CN(Cc1ccc(C(=O)NO)s1)c1ccccc12`, the values for the half-inhibitory concentration (IC50) (on Histone deacetylase 8; in data set [4]; on Histone deacetylase 1) were 1.34 µM, 0.719 µM and 10.9 µM, respectively. In addition, the Ratio IC50 in the data set listed under Homo sapiens [1] came to 15.
As to `O=C(NO)c1ccc(CN2CC3(CCCCC3)c3ccccc32)cc1`, the FC in data set [5] came out at 2.27; in data set [6] it was 2.58; in data set [7] it was 1.77; in data set [8], 2.21. For the same molecule, the IC50 (usually the point on the concentration scale where inhibition reaches its midpoint) on Histone deacetylase 8 amounted to 0.253 µM; in [4], 0.0409 µM; on Histone deacetylase 1, 6.79 µM. Also, the Ratio IC50 in the data set filed under Homo sapiens [1] was determined as 166. The inhibition entry in [9] was “Dose-dependent effect”.
As to `O=C(CCCCCCNC(=O)c1cnc(N(c2ccccc2)c2ccccc2Cl)nc1)NO`, the Ratio IC50 in the data set filed under Homo sapiens [1], in the data set filed under Homo sapiens [2] and in the data set filed under Homo sapiens [3] was 10 throughout.
As for `CN1CCC2(CC1)CN(Cc1ccc(C(=O)NO)cc1)c1ccccc12`, the FC turned out to be 1.02 in data set [5], 2.44 in data set [6], 1.83 in data set [7] and 1.6 in [8]. In addition, in the data set filed under Homo sapiens [1], the Ratio IC50 stood at 57. Moreover, the values for the IC50 (in [4]; at Histone deacetylase 1) were 0.204 µM and 11.7 µM, respectively. Besides, the inhibition entry in data set [9] is “Dose-dependent effect”.
With `CC(=O)N1CCC2(CC1)CN(Cc1ccc(C(=O)NO)cc1)c1ccccc12`, the Ratio IC50 in the data set listed under Homo sapiens [1] worked out at 116. Besides, the half-maximal inhibitory concentration (IC50) came out at 0.0625 µM in data set [4] and 7.29 µM on Histone deacetylase 1.
With `CC(C)(C)OC(=O)N1CCC2(CC1)CN(Cc1ccc(C(=O)NO)cc1)c1ccccc12`, the FC is given as 1.12 in data set [5]; 0.96 in data set [6]; 2.74 in data set [7]; 2.12 in [8]; 1.1 in data set [10]; 1.11 in data set [11]. Also, the IC50 on Histone deacetylase 8 came to 1.6 µM; in data set [4], 0.0419 µM; on Histone deacetylase 1, 4 µM. Moreover, the Ratio IC50 in the data set listed under Homo sapiens [1] worked out at 95. The outcome with NB-4 [12] was Active. The inhibition result in data set [13] is “Active”. The CC50 in data set [14] came to 23 µM. In addition, the inhibition entry in data set [15] is “Dose-dependent effect”.
As to `CC(C)(C)C(=O)N1CCC2(CC1)CN(Cc1ccc(C(=O)NO)cc1)c1ccccc12`, the Ratio IC50 in the data set filed under Homo sapiens [1] turned out to be 74. Moreover, the half-maximal inhibitory concentration (IC50) was determined as 0.0601 µM in data set [4] and 4.47 µM on Histone deacetylase 1. Moreover, in the data set with NB-4 [16], the outcome was Active.
As for `CN1CCC2(CC1)CN(Cc1ccc(C(=O)NO)s1)c1ccccc12`, in the data set filed under Homo sapiens [1], the Ratio IC50 came to 6. Also, the IC50 in data set [4] was found to be 1.78 µM; at Histone deacetylase 1, 11.4 µM.
Take `O=C(CCCCCCC(=O)Nc1ccccc1)NO`: in the data set on NB-4 [17], the outcome was Active.
In the case of `CN1CCc2c(c3ccccc3n2Cc2ccc(C(=O)NO)cc2)C1` [TUBASTATIN A], the FC in [5] is 0.84; in data set [6], 0.97; in data set [7], 1.68 to 1.97; in data set [8] it was 2.18 to 2.38; in data set [10], 1.13; in data set [11], 1.17.
